Experimental findings from patent publication US4510136A (priority 1983, dated 1985) are described below.

Holding throughout (type): in vivo
The test system of assay [1] is Puccinia recondita var. tritici. The assay is described as follows: Wheat leaf rust control on sprayed wheat seedlings (Example 79). Particulars: 100 ppm spray, day before inoculation; for pest or weed control at 100 ppm: Puccinia recondita, 168 h. The protocol:
The compounds of this invention were dissolved in acetone in an amount equal to 6% of the final volume and then suspended at a concentration of 100 ppm in purified water containing 250 ppm of the surfactant TREM 014 (polyhydric alcohol esters). These suspensions were sprayed to the point of run-off on wheat seedlings. The following day, the plants were inoculated with a spore suspension of Puccinia recondita var. tritici, causal agent of wheat leaf rust, and incubated in a saturated humidity chamber at 20° for 24 hours and then in a growth room for an additional 7 days, when disease ratings were made. Treated plants from successful treatments had few or no rust pustules while the untreated plants had numerous rust pustules on each leaf.

The subject of a further assay is Erysiphe cichoracearum. The assay can be described thus: Cucumber powdery mildew control on sprayed cucumber seedlings (Example 80). Particulars: 100 ppm spray, day before inoculation; for pest or weed control at 100 ppm: Golovinomyces cichoracearum, 168 h. As to the method:
These suspensions were sprayed to the point of run-off, on cucumber seedlings. The following day, the plants were inoculated with a spore suspension of the fungus Erysiphe cichoracearum, causal agent of cucumber powdery mildew, and incubated in a growth room for 7 days. Disease ratings were then made. Treated plants from successful treatments had little or no powdery mildew in contrast to untreated plants which were covered with powdery mildew. Phytotoxicity in the form of growth reduction or hormonal effects was observed on some of the plants in association with disease control.

The subject of another assay is Venturia inaequalis. The assay is described as follows: Apple scab control on sprayed apple seedlings (Example 82). Particulars: 100 ppm spray, day before inoculation; for pest or weed control at 100 ppm: Venturia inaequalis. As to the method:
These suspensions were sprayed to the point of run-off on apple seedlings. The following day, the plants were inoculated with a spore suspension of the fungus Venturia inaequalis, causal agent of apple scab, and incubated in a saturated humidity chamber at 20° for 24 hours and then in a growth room for an additional 10-12 days. Treated plants from successful treatments had fewer apple scab lesions when compared to untreated plants which were covered with scab lesions. Phytotoxicity expressed as growth reduction was observed on some of the plants in association with disease control.

The subject of the next assay is Helminthosporium maydis. The assay is described as follows: Southern corn leaf blight control on sprayed corn seedlings (Example 83). Particulars: 100 ppm spray, day before inoculation; for pest or weed control at 100 ppm: Bipolaris maydis, 192 h. As to the method: The compounds of the previous examples were again dissolved in acetone in an amount equal to 6% of the final volume and then suspended at a concentration of 100 ppm in purified water containing 250 ppm of the surfactant TREM 014 (polyhydric alcohol esters). These suspensions were sprayed to the point of run-off on corn seedlings. The following day, the plants were inoculated with a spore suspension of Helminthosporium maydis, causal agent of southern corn leaf blight, and incubated in a saturated humidity chamber at 20° for 24 hours and then in a growth room for an additional 7 days, when disease ratings were made. Treated plants from successful treatments had few or no lesions while the untreated plants had numerous lesions on each leaf. Phytotoxicity expressed as growth reduction was observed on some of the plants in association with disease control.

Another assay has as its system Cercospora arachidicola. The assay can be described thus: Peanut early leafspot control on sprayed peanut seedlings (Example 84). Particulars: 100 ppm spray, day before inoculation; for pest or weed control at 100 ppm: Mycosphaerella arachidis, 360 h, read-out: % Control Peanut Easly Leafspot. The protocol:
These suspensions were sprayed to the point of run-off on peanut seedlings. The following day, the plants were inoculated with a spore suspension of Cercospora arachidicola, causal agent of peanut early leafspot, and incubated in a saturated humidity chamber at 27° for 24 hours and then in a growth room for an additional 14 days, when disease ratings were made. Treated plants from successful treatments had few or no leafspots while the untreated plants had numerous leafspots.

The test system of another assay is Rhizoctonia solani. The assay is described as follows: Rice sheath blight control on sprayed rice seedlings (Example 87). Particulars: 100 ppm spray, day before inoculation; for pest or weed control at 100 ppm: Rhizoctonia solani, 168 h. As to the method: The compounds of the previous examples were again dissolved in acetone in an amount equal to 6% of the final volume and then suspended at a concentration of 100 ppm in purified water containing 250 ppm of the surfactant TREM 014 (polyhydric alcohol esters). This suspension was sprayed to the point of run-off on rice seedlings. The following day, the plants were inoculated with a mixture of bran and the mycelium of Rhizoctonia solani, causal agent of sheath blight of rice, and incubated in a growth room for 7 days. Disease ratings were then made. Treated plants from successful treatments had little sheath blight in contrast to untreated plants which were covered with sheath blight.

Another assay deals with Pyricularia oryzae. The assay is described as follows: whole plant or invertebrate. Particulars: for % Control of Rice Blast: 100 ppm spray, day before inoculation; for pest or weed control at 100 ppm: Pyricularia oryzae, 168 h, read-out: % Control of Rice Blast, 100 ppm spray, day before inoculation.
In a further assay the test system is Phytophthora infestans. The assay can be described thus: whole plant or invertebrate. Particulars: for % Control of Tomato Late Blight: 100 ppm spray, day before inoculation; for pest or weed control at 100 ppm: Phytophthora infestans, in Solanum lycopersicum, 168 h, read-out: % Control of Tomato Late Blight, 100 ppm spray, day before inoculation.

Regarding “(1,1'-Biphenyl-4-yl)dimethyl(1H-1,2,4-triazol-1-ylmethyl)silane, 2:1 complex with cupric chloride”, the “% Control Wheat Rust” value in assay [1] was found to be 100%. In addition, in the assay with Erysiphe cichoracearum, the “% Control Cucumber Powdery Mildew” value worked out at 100%. Also, the “% Control Apple Scab” value in the assay with Venturia inaequalis was found to be 100%. For the same molecule, in the assay with Helminthosporium maydis, the “% Control of Southern Corn Leaf Blight” value is reported as 80%. The “% Control Peanut Easly Leafspot” value in the assay on Cercospora arachidicola worked out at 100%. In addition, in the assay with Rhizoctonia solani, the “% Control of Rice Sheath Blight” value is recorded as 80%. The “% Control of Rice Blast” value with Pyricularia oryzae is 0%. In addition, the “% Control of Tomato Late Blight” value in the assay on Phytophthora infestans is 0%.

In the case of `CCCCCCCCCCCCCCCCCC[Si](C)(C)Cn1cncn1` [Dimethyl(octadecyl)(1H-1,2,4-triazol-1-ylmethyl)silane], the pest or weed control at 100 ppm worked out at 0% in assay [1]; 0% with Erysiphe cichoracearum; 60% in the assay with Venturia inaequalis; 0% in the assay with Helminthosporium maydis; 0% with Cercospora arachidicola; 0% with Rhizoctonia solani. The pest or weed control at 100 ppm in the assay with Pyricularia oryzae and with Phytophthora infestans was 0% in each case.

As for `C[Si](C)(Cn1cncn1)c1cc(Cl)cc(Cl)c1` [(3,5-Dichlorophenyl)dimethyl(1H-1,2,4-triazol-1-ylmethyl)silane], the pest or weed control at 100 ppm was 80% in assay [1]; 0% with Erysiphe cichoracearum; 0% in the assay on Venturia inaequalis; 40% in the assay on Helminthosporium maydis; 0% in the assay with Cercospora arachidicola; 0% with Rhizoctonia solani. Also, the pest or weed control at 100 ppm with Pyricularia oryzae and in the assay on Phytophthora infestans was 0% throughout.

For `C[Si](Cn1cncn1)(c1ccccc1)c1ccccc1Cl` (centres unmarked) [2-Chlorophenyl(methyl)phenyl(1H-1,2,4-triazol-1-ylmethyl)silane], the pest or weed control at 100 ppm in assay [1] came out at 80%; in the assay with Erysiphe cichoracearum, 100%; with Venturia inaequalis it was 90%; with Helminthosporium maydis, 100%; in the assay on Cercospora arachidicola, 100%; with Rhizoctonia solani it was 90%. Moreover, the pest or weed control at 100 ppm in the assay with Pyricularia oryzae amounted to 100%; in the assay with Phytophthora infestans it was 0%.

Regarding `C[Si](C)(Cn1cncn1)c1ccc(S(C)(=O)=O)cc1` [Dimethyl(4-methylsulfonylphenyl)(1H-1,2,4-triazol-1-ylmethyl)silane], the pest or weed control at 100 ppm (in assay [1]; in the assay on Erysiphe cichoracearum; in the assay on Venturia inaequalis; in the assay on Helminthosporium maydis; with Cercospora arachidicola; in the assay with Rhizoctonia solani) was 0% each time. Further, the pest or weed control at 100 ppm in the assay on Pyricularia oryzae worked out at 70%; in the assay on Phytophthora infestans, 0%.

Turning to `C[Si](C)(Cn1cncn1)c1ccc(-c2ccccc2)cc1.[Cl][Cu]` [1:1 complex of (1,1'-Biphenyl-4-yl)dimethyl(1H-1,2,4-triazol-1-ylmethyl)silane and Cuprous Chloride], the “% Control Wheat Rust” value in assay [1] came to 0%. Further, the “% Control Cucumber Powdery Mildew” value in the assay with Erysiphe cichoracearum came out at 100%. For the same molecule, in the assay on Venturia inaequalis, the “% Control Apple Scab” value is reported as 100%. Moreover, the “% Control of Southern Corn Leaf Blight” value in the assay on Helminthosporium maydis worked out at 100%. In addition, the “% Control Peanut Easly Leafspot” value with Cercospora arachidicola is listed as 100%. For the same molecule, in the assay with Rhizoctonia solani, the “% Control of Rice Sheath Blight” value amounted to 90%. In the assay with Pyricularia oryzae, the “% Control of Rice Blast” value is reported as 100%. In the assay on Phytophthora infestans, the “% Control of Tomato Late Blight” value was found to be 100%.

`CCCC[Si](C)(Cn1cncn1)c1ccccc1` (centres unmarked) [Butyl(methyl)phenyl(1H-1,2,4-triazol-1-ylmethyl)silane]: the pest or weed control at 100 ppm in assay [1] came out at 0%; with Erysiphe cichoracearum, 100%; with Venturia inaequalis, 80%; in the assay with Helminthosporium maydis, 0%; with Cercospora arachidicola, 0%; in the assay on Rhizoctonia solani, 90%. Moreover, the pest or weed control at 100 ppm in the assay on Pyricularia oryzae was found to be 90%; with Phytophthora infestans, 0%.

On to `Cc1ccc([Si](C)(Cn2cncn2)c2ccc(C)cc2)cc1` [Methyl[bis(4-methylphenyl)](1H-1,2,4-triazol-1-ylmethyl)silane], for which the pest or weed control at 100 ppm worked out at 0% in assay [1]; 0% in the assay with Erysiphe cichoracearum; 0% in the assay on Venturia inaequalis; 0% in the assay with Helminthosporium maydis; 0% in the assay on Cercospora arachidicola; 30% in the assay on Rhizoctonia solani. Also, the pest or weed control at 100 ppm with Pyricularia oryzae was found to be 80%; with Phytophthora infestans it was 0%.

On to `C[Si](C)(Cn1cncn1)c1cccc(-c2ccccc2)c1` [(1,1'-Biphenyl-3-yl)dimethyl(1H-1,2,4-triazol-1-ylmethyl)silane], for which the pest or weed control at 100 ppm in assay [1] was determined as 80%; in the assay with Erysiphe cichoracearum, 0%; in the assay on Venturia inaequalis it was 50%; in the assay on Helminthosporium maydis, 100%; in the assay on Cercospora arachidicola, 90%; in the assay on Rhizoctonia solani it was 0%. In addition, the pest or weed control at 100 ppm in the assay with Pyricularia oryzae and with Phytophthora infestans was 0% each time.

As to `CC(C)O[Si](C)(Cn1cncn1)c1ccccc1` (centres unmarked) [Methyl(phenyl)(2-propoxy)(1H-1,2,4-triazol-1-ylmethyl)silane], the pest or weed control at 100 ppm was determined as 0% in assay [1]; 100% in the assay on Erysiphe cichoracearum; 0% in the assay on Venturia inaequalis; 0% in the assay with Helminthosporium maydis; 0% with Cercospora arachidicola; 0% with Rhizoctonia solani. The pest or weed control at 100 ppm with Pyricularia oryzae and in the assay on Phytophthora infestans was 0% throughout.

With `Fc1ccc([Si](Cn2cncn2)(c2ccc(F)cc2)c2ccc(F)cc2)cc1` [tris(4-Fluorophenyl)(1H-1,2,4-triazol-1-ylmethyl)silane], the pest or weed control at 100 ppm in assay [1] worked out at 90%; in the assay with Erysiphe cichoracearum, 0%; in the assay with Venturia inaequalis, 60%; with Helminthosporium maydis it was 0%; with Cercospora arachidicola, 90%; with Rhizoctonia solani, 0%. Moreover, the pest or weed control at 100 ppm with Pyricularia oryzae and with Phytophthora infestans was 0% in each case.

As for `O[Si](Cn1cnnc1)(c1ccc(Cl)cc1)c1ccc(Cl)cc1` [bis(4-Chlorophenyl)hydroxy(4H-1,2,4-triazol-4-ylmethyl)silane], the pest or weed control at 100 ppm in assay [1] is 90%; with Erysiphe cichoracearum, 100%; with Venturia inaequalis, 100%; in the assay with Helminthosporium maydis, 80%; in the assay on Cercospora arachidicola it was 100%; with Rhizoctonia solani, 0%. Further, the pest or weed control at 100 ppm with Pyricularia oryzae and in the assay with Phytophthora infestans was 0% each time.

As to `CC(C)O[Si](C)(Cn1cncn1)c1ccc(-c2ccccc2)cc1` (centres unmarked) [(1,1'-biphenyl-4-yl)methyl(2-propoxy)(1H-1,2,4-triazol-1-ylmethyl)silane], the pest or weed control at 100 ppm in assay [1] was found to be 100%; with Erysiphe cichoracearum, 100%; with Venturia inaequalis, 100%; with Helminthosporium maydis, 90%; in the assay on Cercospora arachidicola, 100%; with Rhizoctonia solani, 0%. Also, the pest or weed control at 100 ppm in the assay with Pyricularia oryzae and in the assay with Phytophthora infestans was 0% each time.
